One compound from patent publication US11505523B2, “HDAC8 inhibitors for treating cancer” (City of Hope, priority 2013, dated 2022) can be followed below.

Series [1] addresses HDAC1 (Homo sapiens (Human), UniProt Q13547). In words: Inhibition of purified HDAC1. The class given is biochemical. As to conditions: class I; read-out: HDAC 1 IC50.
Series [2] deals with OCI-AML3 cells. In words: Survival/apoptosis of OCI-AML3 AML cells by Annexin V labeling. The format is cell-based, human.
The test system of series [3] is MV4-11 cells. The series can be described thus: Proliferation of MV4-11 cells, luminescent cell viability assay. The class given is cell-based, human. As to conditions: 48-hr, luminescent cell viability assay; read-out: MV4-11 Proliferation IC50.
For series [4], the system named is normal CD34^+ cells. The series can be described thus: Apoptosis/cytotoxicity in normal CD34+ cells. The text has this: Given that the frequency of TP53 mutation is relatively low in AML, altered post-translational modification by HDAC8 could represent an alternative p53-inactivating mechanism and contribute to drug resistance of AML stem cells. We first examined the expression of HDAC8 in CD34^+ stem and progenitor cells isolated from patients with inv(16)^+ AML compared to normal mobilized peripheral blood stem cells (PBSC).

The subject of series [5] is p53 target genes in inv(16)^+ AML CD34^+ cells. In words: qRT-PCR of p53 target genes in inv(16)+ AML CD34+ cells. The class given is cell-based, human. The following applies: 10 μM, 16 h. The text has this: FIGS. 5A-5G. […] FIG. 5A: Relative expression level of HDAC8 in normal (NL) PBSC (n=7) or inv(16)^+ AML (n=7) CD34^+ cells determined by qRT-PCR. Levels of HDAC8 expression were normalized to levels of ACTB in each sample. Dashed line indicates the average of all NL PBSC samples (set to an arbitrary value of 1). […] Each dot represents an individual subject and lines indicate mean±SEM. * P<0.05; ** P<0.01; *** P<0.001. […] Each dot represents an individual patient and lines indicate mean±SEM. * P<0.05; ** P<0.01; *** P<0.001. […] Levels of β-actin were detected as loading control. Shown are representative results from four patients. […] Each dot represents an individual subject and lines indicate mean±SEM. Dash line indicates levels in vehicle treated cells. * P<0.05; ** P<0.01; *** P<0.001. […] Each dot represents an individual patient and lines indicate mean±SEM.

The test system of series [6] is dTomato^+/cKit^+ AML cells. The series can be described thus: In vivo administration of 22d to mice transplanted with AML cells. As to the method: FIG. 7A-7I. […] FIG. 7A: Schematic illustration of experimental design. Cbfb^+/56MMx1Cre/tdTomato^+ mice were induced with pIpC and AML cells were isolated from bone marrow of moribund mice and transplanted into sub-lethally irradiated (6.5 Gy) C57Bl/6 congenic mice. […] AML engraftment was analyzed at the end of the treatment period, and transplanted into 2nd recipients. Recipients were analyzed for engraftment at 8 weeks or monitored for leukemia onset and survival. […] Mice were analyzed 8 weeks after transplantation. […] FIG. 7G.
AML cells (1×10^6 or 2×10^6) were directly transplanted into sub-lethally irradiated congenic recipients. […] To further assess the impact on LSC activity, we transplanted bone marrow cells (2×10^6) from these treated mice into secondary recipients and analyzed for AML engraftment.

Series [7] has as its system Ac-p53 and p53 in MV4-11 cells. In words: Western blot of Ac-p53 and p53 in MV4-11 cells. The format is cell-based, human. As to conditions: 6-hr, increased HDAC8i concentration. As to the method:
FIGS. 21A-21D. HDAC8 inhibition activates p53 and induces p53-dependent apoptosis in human AML cells. […] FIG. 21B: Western blot analysis of Ac-p53, total p53, Ac-H3, Ac-H4, β-actin in MV4-11 cells treated with indicated doses of HDAC8i for 6 h. FIG. 21C: Fold change in mRNA levels of p53 targets after treatment with PCI-48012 ([…]) for 16 h. FIG. 21D: Western blot analysis of p53, β-actin in MV4-11 cells transduced with control or sh-p53 (top). Relative survival of control or sh-p53 transduced MV4-11 cells treated with HDAC8i (bottom).
For orientation: A western blot detects proteins with antibodies after separation by electrophoresis.

Series [8] concerns the target HDAC2 (Homo sapiens (Human), UniProt Q92769). In words: Inhibition of purified HDAC2. As to conditions: read-out: HDAC 2 IC50; class I.
Series [9] concerns the target HDAC4 (Homo sapiens (Human), UniProt P56524). The series can be described thus: Inhibition of purified HDAC4. The following applies: read-out: HDAC 4 IC50; class II.
In series [10] the test system is normal IMR-90 cells. In words: Cytotoxicity in normal IMR-90 cells. As to conditions: result in words.
Series [11] has as its system Ac-p53 in non-inv(16) AML (p53 non-mutated) CD34^+ cells. The series can be described thus: Western blot of Ac-p53 in non-inv(16) AML CD34+ cells. As to conditions: similar treatment.
Excerpt: (§1) We therefore tested whether inhibiting HDAC8 deacetylase activity in inv(16)^+ AML CD34^+ cells could similarly lead to increased p53 acetylation and transcriptional activity.
Series [12] deals with Ac-p53 (K382) in inv(16)^+ AML CD34^+ cells. In words: Western blot of Ac-p53 (K382) in inv(16)+ AML CD34+ cells. As to conditions: 6 h.
Excerpt: as §1
For series [13], the system named is A549 cells. The series can be described thus: Cytotoxicity / anti-proliferative activity in A549 lung cancer cells. The following applies: result in words.
The test system of series [14] is H1299 cells. In words: Cytotoxicity / anti-proliferative activity in H1299 lung cancer cells.

Chain of HDAC4 (P56524 whole entry, species assumed): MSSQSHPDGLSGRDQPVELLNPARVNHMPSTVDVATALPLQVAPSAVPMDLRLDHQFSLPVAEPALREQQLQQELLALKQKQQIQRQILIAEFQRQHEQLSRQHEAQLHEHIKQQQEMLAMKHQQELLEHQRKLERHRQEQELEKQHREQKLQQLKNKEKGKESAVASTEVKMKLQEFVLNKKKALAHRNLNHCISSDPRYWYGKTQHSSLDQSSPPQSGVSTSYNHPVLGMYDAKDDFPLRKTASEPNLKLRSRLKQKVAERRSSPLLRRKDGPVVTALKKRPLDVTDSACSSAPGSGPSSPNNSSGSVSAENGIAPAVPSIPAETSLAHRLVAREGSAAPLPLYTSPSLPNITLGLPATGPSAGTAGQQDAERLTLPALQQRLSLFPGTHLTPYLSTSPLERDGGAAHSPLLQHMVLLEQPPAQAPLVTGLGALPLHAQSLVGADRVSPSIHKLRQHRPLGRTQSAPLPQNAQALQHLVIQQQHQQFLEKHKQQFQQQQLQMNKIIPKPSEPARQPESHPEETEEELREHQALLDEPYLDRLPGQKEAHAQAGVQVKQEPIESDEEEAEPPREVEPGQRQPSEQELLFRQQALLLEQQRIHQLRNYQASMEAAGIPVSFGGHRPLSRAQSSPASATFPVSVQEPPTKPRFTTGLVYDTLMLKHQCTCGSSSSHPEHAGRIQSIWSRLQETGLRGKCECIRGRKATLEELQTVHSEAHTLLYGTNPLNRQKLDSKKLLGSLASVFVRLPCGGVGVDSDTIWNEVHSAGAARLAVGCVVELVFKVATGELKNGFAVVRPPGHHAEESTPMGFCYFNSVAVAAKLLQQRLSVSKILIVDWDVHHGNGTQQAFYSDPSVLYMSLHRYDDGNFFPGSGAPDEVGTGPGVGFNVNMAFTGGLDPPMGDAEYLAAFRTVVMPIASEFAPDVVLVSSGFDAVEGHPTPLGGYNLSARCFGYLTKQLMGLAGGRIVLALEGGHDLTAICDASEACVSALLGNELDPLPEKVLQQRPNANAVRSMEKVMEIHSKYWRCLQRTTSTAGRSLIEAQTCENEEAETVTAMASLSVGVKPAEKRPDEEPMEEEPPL
Chain of HDAC1 (Q13547 whole entry, species assumed): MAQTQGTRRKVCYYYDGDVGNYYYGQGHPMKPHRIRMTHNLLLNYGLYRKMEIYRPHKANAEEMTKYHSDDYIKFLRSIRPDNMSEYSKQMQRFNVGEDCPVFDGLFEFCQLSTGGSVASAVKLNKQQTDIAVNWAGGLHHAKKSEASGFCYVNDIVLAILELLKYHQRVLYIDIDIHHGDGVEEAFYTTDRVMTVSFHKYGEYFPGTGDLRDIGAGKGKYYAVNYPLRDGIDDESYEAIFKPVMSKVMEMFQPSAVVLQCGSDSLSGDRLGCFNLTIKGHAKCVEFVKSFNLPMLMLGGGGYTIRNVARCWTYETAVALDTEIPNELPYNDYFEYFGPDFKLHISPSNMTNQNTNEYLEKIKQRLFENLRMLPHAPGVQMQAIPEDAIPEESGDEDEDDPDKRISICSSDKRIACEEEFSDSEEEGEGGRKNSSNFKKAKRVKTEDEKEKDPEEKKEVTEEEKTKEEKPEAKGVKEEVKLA
Chain of HDAC2 (Q92769 whole entry, species assumed): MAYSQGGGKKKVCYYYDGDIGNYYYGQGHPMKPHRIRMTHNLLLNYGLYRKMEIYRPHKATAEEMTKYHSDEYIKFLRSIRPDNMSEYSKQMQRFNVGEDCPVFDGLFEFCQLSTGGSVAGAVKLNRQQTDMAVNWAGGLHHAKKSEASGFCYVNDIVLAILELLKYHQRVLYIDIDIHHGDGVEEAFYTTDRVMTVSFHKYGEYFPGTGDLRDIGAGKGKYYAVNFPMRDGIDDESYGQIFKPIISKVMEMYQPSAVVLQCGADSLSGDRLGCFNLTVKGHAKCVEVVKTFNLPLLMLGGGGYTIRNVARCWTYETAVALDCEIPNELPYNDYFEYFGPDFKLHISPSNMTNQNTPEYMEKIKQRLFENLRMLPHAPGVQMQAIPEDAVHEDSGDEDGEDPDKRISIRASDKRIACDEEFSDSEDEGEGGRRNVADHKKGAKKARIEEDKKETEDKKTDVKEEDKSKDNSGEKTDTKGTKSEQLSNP

Regarding `COc1ccc(/C=C/C(=O)NO)c(-c2ccc(-c3ccccc3)cc2)c1` [Compound 22d, (E)-N-Hydroxy-4-methoxy-2-(biphenyl-4-yl)cinnamide], the IC50 in series [1] is 3 ± 0.2 nM; in [2] (48-hr, Annexin V labeling, read-out: OCI-AML3 Apoptosis IC50) it was 8120 nM; in series [3], 2480 nM; in series [8], above 20 nM; in series [9] it was above 20 nM; in [14] (read-out: Cytotoxicity IC50 H1299, mean SD of three determinations), 7.2 ± 0.7 nM. Moreover, the “survival of OCI-AML3 cells” value in series [2] (48 h, result in words) is “decreases with increased HDAC8i concentration”. Besides, the “difference between CD34+ cells from PBSC and CB” value in [4] (based on cell origin) is “no significant difference”. Further, in series [4] (higher dose (40 μM), 48 h), the “cytotoxicity in normal CD34+ cells” value is recorded as “Modest cytotoxicity”. For the same compound, the “expression of p53 target genes in inv(16)+ AML CD34+ cells” value in series [5] is recorded as “significantly induced expression of p53 target genes”. Also, in series [6] (5-7 weeks after transplant of 5×10^6 BM cells), the “leukemia onset in secondary recipients” value was “no signs of leukemia”. Further, the “frequency and number of AML cells in bone marrow of secondary recipients” value in series [6] (8 weeks after transplantation of BM from treated mice) was “Significant reduction in the frequency (p<0.0001) and the number (p=0.0006)”. In addition, the “frequency and number of dTomato+/cKit+ AML cells in the bone marrow” value in series [6] (intraperitoneal 50 mg/kg/dose twice a day for 2 weeks, vs vehicle) was “significantly reduced the frequency (p=0.0097) and the number (p=0.0101)”. In addition, in series [7], the “Ac-p53 and p53 signal by western blot” value was “greater signal for Ac-p53 and p53”. Further, the “cytotoxicity in normal IMR-90 cells” value in series [10] is “no significant cytotoxicity”. For the same compound, the “Ac-p53 level in non-inv(16) AML CD34+ cells” value in series [11] is “did not affect Ac-p53”. Besides, the “Ac-p53 (K382) level in inv(16)+ AML CD34+ cells” value in series [12] is “elevated levels of Ac-p53 (K382)”. In addition, the “anti-proliferative effects in A549 cells” value in [13] was “moderate anti-proliferative effects”. Also, the “anti-proliferative effects in H1299 cells” value in series [14] (result in words) is “moderate anti-proliferative effects”.
